Reference: patent US8569292B2, “Cyclic inhibitors of 11β-hydroxysteroid dehydrogenase 1” (Vitae Pharmaceuticals, Inc., priority 2008, dated 2013)

Columns and labels:
[1] = target: T1, CYP2C9 (Homo sapiens, UniProt P11712); assay: Biological Test Example 7: CYP2C9 inhibition (naproxen O-demethylation); format: in vitro ADME
T1 construct: purchased Invitrogen 2859; host or cells: insect cells infected with baculovirus (microsomes)

[2] = target: CYP2C19 (Homo sapiens, UniProt P33261); assay: Biological Test Example 8: CYP2C19 inhibition (diazepam N-demethylation); format: in vitro ADME
[3] = target: CYP3A4 (Homo sapiens, UniProt P08684); assay: Biological Test Example 6: CYP3A4 inhibition (erythromycin N-demethylation); format: in vitro ADME
[4] = target: T2, 11β-HSD1 (Homo sapiens, UniProt P28845); assay: Biological Test Example 4: microsomal 11β-HSD1 in the presence of 50% human plasma; conditions: for Shift: IC50 in Test Example 4 divided by IC50 in Test Example 1
[5] = target: T2, 11β-HSD1; assay: biochemical; conditions: for inhibition at 0.1 µM: read-out: Average % inhibition at 100 nM
[6] = Biological Test Example 1 IC50 (nM)
[7] = IC50 Range, Biological Test Example 1

Chain of CYP3A4 (P08684 whole entry): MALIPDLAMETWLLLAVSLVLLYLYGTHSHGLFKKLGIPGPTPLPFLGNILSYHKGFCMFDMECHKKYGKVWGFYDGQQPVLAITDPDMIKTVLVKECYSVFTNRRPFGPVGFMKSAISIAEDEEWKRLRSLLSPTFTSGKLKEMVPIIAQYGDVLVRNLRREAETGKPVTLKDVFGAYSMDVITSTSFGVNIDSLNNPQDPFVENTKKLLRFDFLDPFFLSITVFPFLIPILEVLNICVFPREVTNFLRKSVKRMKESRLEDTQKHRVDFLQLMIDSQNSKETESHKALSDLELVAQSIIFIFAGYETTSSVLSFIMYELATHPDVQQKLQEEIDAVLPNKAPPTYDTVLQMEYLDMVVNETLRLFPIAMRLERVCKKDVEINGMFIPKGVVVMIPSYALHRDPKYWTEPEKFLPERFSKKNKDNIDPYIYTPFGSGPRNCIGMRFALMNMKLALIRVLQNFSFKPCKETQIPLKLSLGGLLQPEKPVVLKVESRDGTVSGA
T2 sequence (P28845 whole entry): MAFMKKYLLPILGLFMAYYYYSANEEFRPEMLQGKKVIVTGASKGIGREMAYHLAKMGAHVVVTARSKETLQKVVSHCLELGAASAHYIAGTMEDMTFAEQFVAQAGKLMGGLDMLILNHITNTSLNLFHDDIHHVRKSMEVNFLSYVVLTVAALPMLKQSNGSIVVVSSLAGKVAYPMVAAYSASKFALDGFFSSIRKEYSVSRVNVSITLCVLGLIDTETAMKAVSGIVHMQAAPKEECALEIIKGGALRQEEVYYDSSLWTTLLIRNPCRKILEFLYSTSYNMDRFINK
Chain of CYP2C19 (P33261 whole entry): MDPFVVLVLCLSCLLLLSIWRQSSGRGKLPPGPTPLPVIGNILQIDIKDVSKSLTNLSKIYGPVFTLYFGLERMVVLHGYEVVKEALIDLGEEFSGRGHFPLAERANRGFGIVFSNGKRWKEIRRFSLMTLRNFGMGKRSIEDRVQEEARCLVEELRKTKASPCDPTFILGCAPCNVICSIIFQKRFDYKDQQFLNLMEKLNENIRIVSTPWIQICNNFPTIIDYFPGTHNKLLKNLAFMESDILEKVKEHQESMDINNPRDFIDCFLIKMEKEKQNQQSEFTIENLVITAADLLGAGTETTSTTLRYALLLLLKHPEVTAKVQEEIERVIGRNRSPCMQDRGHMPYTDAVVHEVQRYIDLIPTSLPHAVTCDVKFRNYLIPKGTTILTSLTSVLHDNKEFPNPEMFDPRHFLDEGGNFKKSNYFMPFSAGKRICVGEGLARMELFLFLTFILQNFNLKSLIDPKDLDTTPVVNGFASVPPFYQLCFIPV
T1 sequence (P11712 whole entry): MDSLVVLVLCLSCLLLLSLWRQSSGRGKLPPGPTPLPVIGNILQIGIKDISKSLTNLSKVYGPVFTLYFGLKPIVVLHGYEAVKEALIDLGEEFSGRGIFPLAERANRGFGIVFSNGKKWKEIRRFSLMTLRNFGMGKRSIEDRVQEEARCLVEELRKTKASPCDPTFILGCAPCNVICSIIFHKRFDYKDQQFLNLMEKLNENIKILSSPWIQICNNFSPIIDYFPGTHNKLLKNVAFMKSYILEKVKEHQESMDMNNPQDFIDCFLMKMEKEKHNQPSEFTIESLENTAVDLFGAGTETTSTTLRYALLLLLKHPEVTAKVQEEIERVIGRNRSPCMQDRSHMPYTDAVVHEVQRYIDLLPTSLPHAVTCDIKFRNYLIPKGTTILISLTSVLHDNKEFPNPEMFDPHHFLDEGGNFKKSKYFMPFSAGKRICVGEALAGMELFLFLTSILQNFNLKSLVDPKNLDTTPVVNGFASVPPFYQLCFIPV

Row | IC50 [1] | IC50 [2] | IC50 [3] | IC50 [4] | Shift [4] | IC50 [5, 6] | IC50 [5, 7] | inhibition at 0.1 µM [5] | Structure (SMILES)
1 | 2.3 µM | 1.7 µM | 4.5 µM | 0.0174 µM | 17.5 | 1 nM | < 100 nM | 95% | CCOc1ncc(-c2ccc([C@H](C)N3CC[C@](CC(C)(C)O)(c4ccccc4)OC3=O)cc2)cc1C [EXAMPLE 160, (S)-3-((S)-1-(4-(6-ethoxy-5-methylpyridin-3-yl)phenyl)ethyl)-6-(2-hydroxy-2-methylpropyl)-6-phenyl-1,3-oxazinan-2-one]
2 | 15.1 µM | 7.9 µM | 16.8 µM |  |  |  |  |  | CCNC(=O)c1ccc(-c2ccc([C@H](C)N3CC[C@](CC(C)(C)O)(c4ccccc4)OC3=O)cc2)cn1 [EXAMPLE 168, 5-(4-{(S)-1-[(S)-6-(2-Hydroxy-2-methyl-propyl)-2-oxo-6-phenyl-[1,3]oxazinan-3-yl]-ethyl}-phenyl)-pyridine-2-carboxylic acid ethylamide]
3 | > 50 µM | > 50 µM | > 50 µM |  |  |  |  |  | C[C@@H](c1ccc(-c2ccc([S+](C)[O-])nc2)cc1)N1CC[C@](CC(C)(C)O)(c2ccccc2)OC1=O (stereo partly drawn) [EXAMPLE 182, (S)-6-(2-Hydroxy-2-methyl-propyl)-3-{(S)-1-[4-(6-methanesulfinyl-pyridin-3-yl)-phenyl]-ethyl}-6-phenyl-[1,3]oxazinan-2-one]
4 | > 50 µM | > 50 µM | 33.7 µM |  |  |  |  |  | C[C@@H](c1ccc(-c2cccc(S(C)(=O)=O)n2)cc1)N1CC[C@](CC(C)(C)O)(c2ccccc2)OC1=O [EXAMPLE 190, (S)-6-(2-Hydroxy-2-methyl-propyl)-3-{(S)-1-[4-(6-methanesulfonyl-pyridin-2-yl)-phenyl]-ethyl}-6-phenyl-[1,3]oxazinan-2-one]
5 | > 50 µM | 48.6 µM | > 50 µM |  |  | 0.9 nM | < 100 nM | 95.2% | C[C@@H](c1ccc(-c2ccc(S(C)(=O)=O)cn2)cc1)N1CC[C@](CC(C)(C)O)(c2ccccc2)OC1=O [EXAMPLE 186, (S)-6-(2-Hydroxy-2-methyl-propyl)-3-{(S)-1-[4-(5-methanesulfonyl-pyridin-2-yl)-phenyl]-ethyl}-6-phenyl-[1,3]oxazinan-2-one]
6 | 45.2 µM | 5.9 µM | 28.4 µM |  |  |  |  |  | CNC(=O)c1ccc(-c2ccc([C@H](C)N3CC[C@](CC(C)(C)O)(c4ccccc4)OC3=O)cc2)cn1 [EXAMPLE 169, 5-(4-{(S)-1-[(S)-6-(2-Hydroxy-2-methyl-propyl)-2-oxo-6-phenyl-[1,3]oxazinan-3-yl]-ethyl}-phenyl)-pyridine-2-carboxylic acid methylamide]
7 | 7.8 µM | 1 µM | 5.4 µM |  |  |  |  |  | C[C@@H](c1ccc(-c2nccs2)cc1)N1CC[C@](CC(C)(C)O)(c2ccccc2)OC1=O [EXAMPLE 174, (S)-6-(2-Hydroxy-2-methyl-propyl)-6-phenyl-3-[(S)-1-(4-thiazol-2-yl-phenyl)-ethyl]-[1,3]oxazinan-2-one]
8 | 30 µM | 25.7 µM | 42.9 µM |  |  |  |  |  | C[C@@H](c1ccc(-c2cc(S(C)(=O)=O)ccn2)cc1)N1CC[C@](CC(C)(C)O)(c2ccccc2)OC1=O [EXAMPLE 185, (S)-6-(2-Hydroxy-2-methyl-propyl)-3-{(S)-1-[4-(4-methanesulfonyl-pyridin-2-yl)-phenyl]-ethyl}-6-phenyl-[1,3]oxazinan-2-one]
9 | 21.2 µM | > 50 µM | 42.4 µM |  |  |  |  |  | C[C@@H](c1ccc(-c2cncc(S(C)(=O)=O)c2)cc1)N1CC[C@](CC(C)(C)O)(c2ccccc2)OC1=O [EXAMPLE 188, (S)-6-(2-Hydroxy-2-methyl-propyl)-3-{(S)-1-[4-(5-methanesulfonyl-pyridin-3-yl)-phenyl]-ethyl}-6-phenyl-[1,3]oxazinan-2-one]
10 | > 50 µM | > 50 µM | > 50 µM |  |  |  |  |  | C[C@@H](c1ccc(-c2cc([S+](C)[O-])ccn2)cc1)N1CC[C@](CC(C)(C)O)(c2ccccc2)OC1=O (stereo partly drawn) [EXAMPLE 184, (S)-6-(2-Hydroxy-2-methyl-propyl)-3-{(S)-1-[4-(4-methanesulfinyl-pyridin-2-yl)-phenyl]-ethyl}-6-phenyl-[1,3]oxazinan-2-one]

More lines, now with the values behind:

Row | Structure (SMILES) | IC50 [1] | IC50 [2] | IC50 [3] | IC50 [4] | Shift [4] | IC50 [5, 6] | IC50 [5, 7] | inhibition at 0.1 µM [5]
11 | C[C@@H](c1ccc(-c2ccc(C#N)cn2)cc1)N1CC[C@](CCCO)(c2ccc(F)cc2)OC1=O [EXAMPLE 101, 6-(4-((S)-1-((R)-6-(4-fluorophenyl)-6-(3-hydroxypropyl)-2-oxo-1,3-oxazinan-3-yl)ethyl)phenyl)nicotinonitrile] | 9.9 µM | > 50 µM | > 50 µM | 0.0075 µM | 6.0 | 1.2 nM | < 100 nM | 100%
12 | Cc1nnc(-c2ccc([C@H](C)N3CC[C@](CC(C)(C)O)(c4ccccc4)OC3=O)cc2)s1 [EXAMPLE 172, (S)-6-(2-Hydroxy-2-methyl-propyl)-3-{(S)-1-[4-(5-methyl-[1,3,4]thiadiazol-2-yl)-phenyl]-ethyl}-6-phenyl-[1,3]oxazinan-2-one] | 38.1 µM | 44.4 µM | > 50 µM | 0.0106 µM |  | 3.3 nM | < 100 nM | 97.9%
13 | C[C@@H](c1ccc(-c2ccc(C(=O)NC3CC3)nn2)cc1)N1CC[C@](CC(C)(C)C#N)(c2ccccc2)OC1=O [EXAMPLE 11, 6-(4-((S)-1-((R)-6-(2-cyano-2-methylpropyl)-2-oxo-6-phenyl-1,3-oxazinan-3-yl)ethyl)phenyl)-N-cyclopropylpyridazine-3-carboxamide] | > 50 µM | 3.7 µM | 8.7 µM | 0.0034 µM | 3.5 | 1 nM | < 100 nM | 91.6%
14 | Cc1nn(C)c(C)c1-c1ccc([C@H](C)N2CC[C@](CC(C)(C)O)(c3ccccc3)OC2=O)cc1 [EXAMPLE 177, (S)-6-(2-Hydroxy-2-methyl-propyl)-6-phenyl-3-{(S)-1-[4-(1,3,5-trimethyl-1H-pyrazol-4-yl)-phenyl]-ethyl}-[1,3]oxazinan-2-one] | 8.8 µM | 17.7 µM | > 50 µM |  |  |  |  | 
15 | Cc1nc(C)c(-c2ccc([C@H](C)N3CC[C@](CC(C)(C)O)(c4ccccc4)OC3=O)cc2)s1 [EXAMPLE 176, 3-{(S)-1-[4-(2,4-Dimethyl-thiazol-5-yl)-phenyl]-ethyl}-(S)-6-(2-hydroxy-2-methyl-propyl)-6-phenyl-[1,3]oxazinan-2-one] | 6 µM | 7.9 µM | 7.5 µM |  |  |  |  | 
16 | Cc1nc(-c2ccc([C@H](C)N3CC[C@](CC(C)(C)O)(c4ccccc4)OC3=O)cc2)sc1C [EXAMPLE 181, (S)-3-{1-[4-(4,5-Dimethyl-thiazol-2-yl)-phenyl]-ethyl}-6-(2-hydroxy-2-methyl-propyl)-6-phenyl-[1,3]oxazinan-2-one] | 5.6 µM | 8.2 µM | 7.8 µM |  |  |  |  | 
17 | C[C@@H](c1ccc(-c2ncc(C(=O)NC3CC3)s2)cc1)N1CC[C@](CC(C)(C)O)(c2ccccc2)OC1=O [EXAMPLE 20, N-cyclopropyl-2-(4-((S)-1-((S)-6-(2-hydroxy-2-methylpropyl)-2-oxo-6-phenyl-1,3-oxazinan-3-yl)ethyl)phenyl)thiazole-5-carboxamide] | 15.4 µM | 47.7 µM | 49.8 µM |  |  |  |  | 
18 | COC[C@]1(c2ccccc2)CCN([C@@H](C)c2ccc(-c3ccc(C)nn3)cc2)C(=O)O1 [EXAMPLE 167, (R)-6-(methoxymethyl)-3-((S)-1-(4-(6-methylpyridazin-3-yl)phenyl)ethyl)-6-phenyl-1,3-oxazinan-2-one] | 29.5 µM | 26.1 µM | 46.7 µM |  |  |  |  | 
19 | C[C@@H](c1ccc(-c2cscn2)cc1)N1CC[C@](CC(C)(C)O)(c2ccccc2)OC1=O [EXAMPLE 175, (S)-6-(2-Hydroxy-2-methyl-propyl)-6-phenyl-3-[(S)-1-(4-thiazol-4-yl-phenyl)-ethyl]-[1,3]oxazinan-2-one] | 29.8 µM | 1.8 µM | 9.7 µM |  |  |  |  | 
20 | C[C@@H](c1ccc(-c2cnn(C)c2)cc1)N1CC[C@](CC(C)(C)O)(c2ccccc2)OC1=O [EXAMPLE 178, (S)-6-(2-Hydroxy-2-methyl-propyl)-3-{(S)-1-[4-(1-methyl-1H-pyrazol-4-yl)-phenyl]-ethyl}-6-phenyl-[1,3]oxazinan-2-one] | 21.3 µM | > 50 µM | > 50 µM |  |  |  |  | 
21 | C[C@@H](c1ccc(-c2cncs2)cc1)N1CC[C@](CC(C)(C)O)(c2ccccc2)OC1=O [EXAMPLE 171, (S)-6-(2-Hydroxy-2-methyl-propyl)-6-phenyl-3-[(S)-1-(4-thiazol-5-yl-phenyl)-ethyl]-[1,3]oxazinan-2-one] | 9.2 µM | 0.8 µM | < 0.4 µM |  |  |  |  | 
22 | C[C@@H](c1ccc(-c2ccc(S(C)(=O)=O)nc2)cc1)N1CC[C@](CC(C)(C)O)(c2ccccc2)OC1=O [EXAMPLE 183, (S)-6-(2-Hydroxy-2-methyl-propyl)-3-{(S)-1-[4-(6-methanesulfonyl-pyridin-3-yl)-phenyl]-ethyl}-6-phenyl-[1,3]oxazinan-2-one] | 45.7 µM | 47.4 µM | > 50 µM |  |  | 0.93 nM | < 100 nM | 96.4%
23 | C[C@@H](c1ccc(-c2nncs2)cc1)N1CC[C@](CC(C)(C)O)(c2ccccc2)OC1=O [EXAMPLE 173, (S)-6-(2-Hydroxy-2-methyl-propyl)-6-phenyl-3-[(S)-1-(4-[1,3,4]thiadiazol-2-yl-phenyl)-ethyl]-[1,3]oxazinan-2-one] | 27.2 µM | 33.6 µM | 25.1 µM |  |  |  |  | 
